Legend:
[1] = tested on: carbapenem-resistant P. aeruginosa clinical isolate CFS-1292; experiment: MIC by modified CLSI broth microdilution against P. aeruginosa CFS-1292 (CAA, CAA + human serum); type: cell-based, Pseudomonas aeruginosa; settings: for MIC (μg/mL) against CFS-1292 in 100% CAA (1st run/2nd run): 1st run or single value
[2] = tested on: Enterobacter cloacae; experiment: microbe, parasite or virus in culture; type: cell-based; settings: Enterobacter cloacae ATCC 13047; CAA supplemented with human serum
Experimental: (§1) Determination of Minimal Inhibitory Concentrations (MIC).
(§2) Additional MIC testing was performed for several peptides against the ESKAPE pathogens Escherichia coli, Enterobacter cloacae, Klebsiella pneumoniae, and Acinetobacter baumannii, in CAA supplemented with human serum (Table D).

[3] = tested on: Escherichia coli; experiment: microbe, parasite or virus in culture; type: cell-based; settings: Escherichia coli ATCC 25922; CAA supplemented with human serum
Experimental: as §1, §2

[4] = tested on: Klebsiella pneumoniae; type: cell-based; settings: Klebsiella pneumoniae HM-44; CAA supplemented with human serum
Experimental: as §1, §2

[5] = tested on: Acinetobacter baumannii; experiment: microbe, parasite or virus in culture; type: cell-based; settings: Acinetobacter baumannii ATCC BAA 747; CAA supplemented with human serum
[6] = Stability assessment in 100% CAA; type: in vitro ADME; parameters: unit not given beside the values
Experimental: Stability was assessed after incubation in 100% human serum at 37° C. after 10 minutes, 1 hour, and 2 hours.
Stability assessment was further conducted in 100% CAA and rabbit serum using the same methodology discussed above.

[7] = tested on: M. smegmatis; experiment: 45 hr MIC against M. smegmatis (NTM), Mueller Hinton broth; type: cell-based, Mycobacterium smegmatis; settings: M. smegmatis MC^2 155, Run #1

Row | Sequence | MIC (μg/mL) against CFS-1292 in 100% CAA (1st run/2nd run) [1] | MIC (μg/mL) against CFS-1292 in CAA + […] human serum [1] | MIC [2] | MIC [3] | MIC [4] | MIC [5] | MIC (100% CAA) [6] | 45 hr MIC [7] | MIC (μg/mL) against CFS-1292 in CAA + […] human serum ([1]; listed as CPAR39 + DTT) | MIC (μg/mL) against CFS-1292 in CAA + […] human serum ([1]; listed as CPAR39 − DTT)
1 | MKRRKMTRKGSKRLFTATADKTKSINTAPPPMRGGIRL [Chp7] | 16 µg/mL | 1 µg/mL | >32 µg/mL | 8 µg/mL | 1 µg/mL | >32 µg/mL | 8 | 128 µg/mL | – | –
2 | MAKKMTKGKDRQVFRKTADRTKKLNVRPLLYRGGIRL [Chp11] | 16 µg/mL | 4 µg/mL | 32 µg/mL | 2 µg/mL | 16 µg/mL | 32 µg/mL | 16 | 32 µg/mL | – | –
3 | MAKRHKIPQRASQHSFTRHAQKVHPKNVPRLPMRGGIRL [AVQ244] | 64 µg/mL | – | – | – | – | – | 64 | 64 µg/mL | – | –
4 | MSKKASRKSFTKGAVKVHKKNVPTRVPMRGGIRL [Gkh2] | 16 µg/mL | – | 8 µg/mL | 1 µg/mL | 16 µg/mL | 8 µg/mL | 16 | 32 µg/mL | – | –
5 | MAGKKMVSKGKDRQIFRKTADRTKKMNVRPLLYRGGIRL [Chp12] | 8 µg/mL | – | 32 µg/mL | 8 µg/mL | 16 µg/mL | 1 µg/mL | 8 | 64 µg/mL | – | –
6 | MCKKVCKKCPKKGPKNAPKIGAFYERKTPRLKQST [CPAR39] | 4 µg/mL | 1 µg/mL | – | – | – | – | 4 | >128 µg/mL | 4 µg/mL | 64 µg/mL

Reference: US20220401514A1, “ANTIMICROBIAL, BACTERIOPHAGE-DERIVED POLYPEPTIDES AND THEIR USE AGAINST GRAM-NEGATIVE AND ACID-FAST BACTERIA” (CONTRAFECT CORPORATION, priority 2019, published 2022)
